# What was measured:
# [1] = system: ECV 304 endothelial cells; assay: Examination of endothelial capillary formation; type: cell-based; details: for selectivity index: inhibits the capillary formation better than the cell proliferation, in relation to the borrelidin: ECV 304, from ratios of concentrations inhibiting cell proliferation in 50% and capillary formation, relative to borrelidin
# Description: Basal membrane protein gel prepared from murine EHS tumor, which induces capillary formation, was put onto ECV 304 endothelial cells. The treatment with the borrelidin and the novel borrelidin derivatives of general formula (I) according to the invention was carried out in the same way as in case of the examination of cell proliferation. The extent by which the cells take part in the capillary formation was examined microscopically and by the aid of a morphometrical program, and the thus-obtained data were expressed in percent of the untreated control.
# Namely, it has been stated that, relating to borrelidin, the cell-proliferation-inhibiting effect of the novel derivatives of general formula (I) definitely decreases whereas the capillary-formation-inhibiting effect changes only in a small degree or not at all. The relative degree of selectivity was determined for each compound by […] the ratios of the active agent concentrations that inhibit the cell proliferation in 50% and which inhibit the capillary formation.
# [2] = system: Lewis lung adenocarcinoma; assay: Lewis lung adenocarcinoma metastasis model; type: in vivo; details: for inhibition of the increase of micrometastases: one fifth of the toxic dose
# [3] = system: mouse colon adenocarcinoma cells transplanted into the spleen; assay: Colon 38 spleen-liver metastasis model; type: in vivo; details: subtoxic administration
# Excerpt: 2. In a colon 38 spleen-liver model [Dong, Z. et al., J. Natl. Cancer Inst.
# [4] = system: PC-3 of human prostate cancer; details: cited from earlier work
# [5] = system: cell lines WiDr of human colon cancer; details: cited from earlier work
# [6] = in vivo; cited from earlier work
# [7] = system: cells forming capillary tubules; details: cited from earlier work
smiles,measurement,setting,value
"C[C@@H]1C[C@H](C)C[C@H](C)[C@@H](O)CC(=O)O[C@H]([C@@H]2CCC[C@H]2C(=O)OCCN2CCOCC2)C/C=C/C=C(/C#N)[C@H](O)[C@@H](C)C1 [Example 1, Borrelidin-2-morpholinoethyl ester]","selectivity index: inhibits the capillary formation better than the cell proliferation, in relation to the borrelidin",[1],60 times
"CC1CC(C)CC(C)C(O)C(C#N)=CC=CCC(C2CCCC2C(=O)OCCc2ccccn2)OC(=O)CC(O)C(C)C1 (stereo not drawn) [Example 2, Borrelidin-2-(2-pyridyl)-ethyl ester]","selectivity index: inhibits the capillary formation better than the cell proliferation, in relation to the borrelidin",[1],7.5 times
"CC1CC(C)CC(C)C(O)C(C#N)=CC=CCC(C2CCCC2C(=O)NCCN2CCOCC2)OC(=O)CC(O)C(C)C1 (stereo not drawn) [Example 4, Borrelidin 2-morpholinoethyl amide]","selectivity index: inhibits the capillary formation better than the cell proliferation, in relation to the borrelidin",[1],6 times
"CC1CC(C)CC(C)C(O)CC(=O)OC(C2CCCC2C(=O)NCc2cccnc2)C(C#N)=CC=CCC(O)C(C)C1 (stereo not drawn) [Example 15, Borrelidin-3-picolylamide]",inhibition of the increase of micrometastases,[2]; intraperitoneal administration,inhibited very considerably
same,inhibition of the increase of micrometastases,[2]; per os administration,inhibited very considerably
same,metastasis-forming ability of mouse colon adenocarcinoma cells transplanted into the spleen,[3],considerably decreased
"C[C@@H]1C[C@H](C)C[C@H](C)[C@@H](O)CC(=O)O[C@H]([C@@H]2CCC[C@H]2C(=O)O)C/C=C/C=C(/C#N)[C@H](O)[C@@H](C)C1 [borrelidin, 2′-(7-cyano-8,16-dihydroxy-9,11,13,15-tetramethyl-18-oxo-oxacyclooctadeca-4,6-dien-2-yl)-cyclopentane-1′-carboxylic acid]",effectiveness against cell line,[4],effective
same,effectiveness against cell line,[5],effective
same,inhibition of the propagation of metastatic nodules formed after removing the primary tumour in lung,[2]; Lewis lung adenocarcinoma model,inhibited in a very small degree
same,LD50 value,[6],medium
same,angiogenesis-inhibiting effect,[7],induces the apoptosis of the cells forming capillary tubules
same,"difference in sensitivity of proliferation and capillary formation by the endothelial cells, in favour of capillary formation",[1]; endothelial cells,about a five fold difference

# Reference: patent US6815465B1, “Heterocyclic compounds inhibiting angiogenesis” (IVAX International GmbH, priority 1999, dated 2004)
